# Literature values as cited in patent US20240122962A1, “PHARMACEUTICAL COMPOSITION FOR USE IN THE PREVENTION OR TREATMENT OF A CONDITION ASSOCIATED WITH A REDUCTION IN THE NUMBER OF LACTOBACILLI IN THE VAGINA” (priority 2020, published 2024).
# Tested on: bacterial vaginosis (BV)
# Details: 7-day oral treatment, after 1 month
structure (smiles),measurement,value
"Cc1ncc([N+](=O)[O-])n1CCO [Metronidazole, metronidazole]",cure rate,80-90%
